Experimental data as given in PMC8231113, “Protein Secondary Structure Affects Glycan Clustering in Native Mass Spectrometry” (Life, 2021).

Tests used:
GII.4 Saga P dimer = GII.4 Saga P dimer (Norovirus GII.4 (human norovirus), UniProt B5BTR7); test: Native MS, specific glycan binding to P dimer after reference protein correction; design: species or system human norovirus (hNoV)
Procedure: (§1) Prior to MS analysis, purified P dimers were buffer exchanged to 150 mM ammonium acetate (Sigma-Aldrich, reagent grade ≥98%) at pH 7 via centrifugal filter units at 12,000× g at 4 °C (Vivaspin 500, MWCO 10000, Sartorius). Glycans for native MS analysis were mixed with 1 µM (per monomer) purified GII.4 Saga P dimer and 3 µM of the reference proteins at indicated concentrations. Native mass spectra were measured at room temperature in positive ion mode on a high mass modified LCT Premier mass spectrometer (Waters/Micromass, UK and MS Vision, the Netherlands) with a nano-ESI source. In house-made gold-coated electrospray capillaries were used for direct-sample infusion without any accessory chromatographic separation. The voltages and pressures were optimized for non-covalent protein complexes. The gas pressure used in the source hexapole was set between 6.5 and 6.8 × 10^−2 mbar argon optimized for minimal complex dissociation and the backing pressure of the source roughing pump was set between 7.0 and 8.5 mbar. Spectra were recorded with applied voltages for the capillary and cone of 1.20 kV and 240 V, respectively. Note that charge state distributions for P dimers were sometimes slightly shifted as was the degree of glycan clustering per charge state. These changes were highly variable and not quantifiable.
(§2) For calibration of the raw data, a 25 mg/mL cesium iodide spectrum from the same day was used. MassLynx V4.1 (Waters, Manchester, UK) was used to assign peak series to protein species and to determine the mass after minimal smoothing. Furthermore, OriginPro 2016 SR2 (OriginLab, Northampton, MA, USA) was used for spectral deconvolution and curve fitting. Correction for nonspecific protein-ligand clustering was performed as described. Corrected peak areas were averaged and normalized to the free-protein signal. Data were based on at least three independent measurements. Python code Panda and Numpy package were used to calculate the specific binding of P dimers according to the glycan clustering ratio obtained from the selected reference protein candidates. Seaborn and matplotlib.pyplot package were imported into a python script to plot the results. The module of sklearn.linear model was applied for linear regression. The matplotlib and heatmap package were used to plot the heatmap.
Data from native ESI MS measurements were translated into dissociation constants (KD values). The detailed calculations were based on the equations listed below. A protein (P) and a glycan ligand (L) form a complex through non-covalent interactions leading to a reversible association described by (Equation (1)):(1) P+L⇌PL when equilibrium is reached, the KD can be calculated directly from the concentrations via the law of mass action (Equation (2)):(2) KD=[Pfree][Lfree]/[PL]
(§3) Theoretically, the KD is calculated by measuring the concentration of the three components (Pfree, Lfree, PL) in solution. Usually, these values are only indirectly accessible because they require ligand titration up to binding saturation. However, native MS allows for the directly measurement of Pfree and PL, from which Lfree can be calculated using the input concentrations. In the present work, the non-covalent interaction was measured in the gas phase assuming identical ESI and detection efficiency for free and glycan-associated proteins, both for the analyte and the reference protein. […] For P dimers, the equations reflect glycan binding to the individual monomers assuming that binding sites on each monomer are equal and independent.
Using R described in Equation (3), the KD calculation can be re-written into Equation (4) with the known initial concentration of glycan ligand [L0] and protein [P0], adapted from Sun et al.:(3) R=PLequil∕Pequil=∑nA(PL^n+)∕n∕∑nA(P^n+)∕n (4) KD =L0−RP0/1+R/R […]

[1] = target: T1, carbonic anhydrase isozyme II from bovine erythrocytes (CA) (Bos taurus, UniProt P00921); test: Native MS glycan clustering to reference protein CA; assay type: binding; details: on CA
T1 construct: carbonic anhydrase isozyme II from bovine erythrocytes (CA, CAS number 9001-03-0); purchased Sigma-Aldrich (Merck, Germany); host or cells: bovine erythrocytes
Procedure: as §1, §2, §3
(§4) Using R described in Equation (3), the KD calculation can be re-written into Equation (4) with the known initial concentration of glycan ligand [L0] and protein [P0], adapted from Sun et al.:(3) R=PLequil∕Pequil=∑nA(PL^n+)∕n∕∑nA(P^n+)∕n (4) KD =L0−RP0/1+R/R
(§5) For the carbohydrate-binding experiments, it was essential to keep the initial protein concentrations and pH value constant during the analysis of the protein-carbohydrate solutions. While acidification occurs in any ESI droplet, the remaining solution in the capillary changes pH over time. Therefore, accumulated spectra were obtained within 10 min after the voltages were applied to minimize the influence of pH changes during the measurements. […]

[2] = target: T2, myoglobin from equine heart (Myo) (Equus caballus, UniProt P68082); test: Native MS glycan clustering to reference protein Myo; assay type: binding; details: on Myo
T2 construct: myoglobin from equine heart (Myo, CAS number 100684-32-0); purchased Sigma-Aldrich (Merck, Germany); host or cells: equine heart
Procedure: as §1, §2, §3, §4, §5

T1 sequence (P00921 whole entry): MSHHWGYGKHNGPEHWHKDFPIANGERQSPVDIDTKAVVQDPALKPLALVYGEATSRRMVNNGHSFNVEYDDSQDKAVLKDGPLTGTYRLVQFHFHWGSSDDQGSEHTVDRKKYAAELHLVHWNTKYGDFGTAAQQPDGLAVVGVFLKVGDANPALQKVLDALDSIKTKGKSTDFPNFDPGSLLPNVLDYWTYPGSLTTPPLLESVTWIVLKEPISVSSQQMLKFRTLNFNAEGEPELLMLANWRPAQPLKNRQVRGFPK
T2 sequence (P68082 whole entry): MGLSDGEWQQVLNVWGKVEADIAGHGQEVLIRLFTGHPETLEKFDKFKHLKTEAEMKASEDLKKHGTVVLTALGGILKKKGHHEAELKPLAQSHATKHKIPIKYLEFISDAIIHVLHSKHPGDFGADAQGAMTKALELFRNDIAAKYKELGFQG

CC(=O)N[C@H]1[C@@H](O[C@H]2[C@@H](O)[C@@H](CO)O[C@@H](O[C@H]3[C@H](O)[C@@H](CO)OC(O)[C@@H]3NC(C)=O)[C@@H]2O[C@@H]2O[C@@H](C)[C@@H](O)[C@@H](O)[C@@H]2O)O[C@H](CO)[C@H](O)[C@@H]1O (some centres unmarked) [HBGA A, GalNAcα1-3(Fucα-2)Galβ1-3GlcNAc]
Bound number of carbohydrates on Saga P dimer (GII.4 Saga P dimer; ref. protein ADH, glycan 100 µM): 0 | Bound number of carbohydrates on Saga P dimer (GII.4 Saga P dimer; ref. protein ADH, glycan 200 µM): 0 | Bound number of carbohydrates on Saga P dimer (GII.4 Saga P dimer; ref. protein ADH, glycan 300 µM): 0 | Bound number of carbohydrates on Saga P dimer (GII.4 Saga P dimer; ref. protein ADH, glycan 400 µM): 0 | Bound number of carbohydrates on Saga P dimer (GII.4 Saga P dimer; ref. protein ADH, glycan 500 µM): 0 | Bound number of carbohydrates on Saga P dimer (GII.4 Saga P dimer; ref. protein CA, glycan 100 µM): 1 | Bound number of carbohydrates on Saga P dimer (GII.4 Saga P dimer; ref. protein CA, glycan 200 µM): 1 | Bound number of carbohydrates on Saga P dimer (GII.4 Saga P dimer; ref. protein CA, glycan 300 µM): 1 | Bound number of carbohydrates on Saga P dimer (GII.4 Saga P dimer; ref. protein CA, glycan 400 µM): 1 | Bound number of carbohydrates on Saga P dimer (GII.4 Saga P dimer; ref. protein CA, glycan 500 µM): 1 | Bound number of carbohydrates on Saga P dimer (GII.4 Saga P dimer; ref. protein Cyto c, glycan 100 µM): 2 | Bound number of carbohydrates on Saga P dimer (GII.4 Saga P dimer; ref. protein Cyto c, glycan 200 µM): 3 | Bound number of carbohydrates on Saga P dimer (GII.4 Saga P dimer; ref. protein Cyto c, glycan 300 µM): 3 | Bound number of carbohydrates on Saga P dimer (GII.4 Saga P dimer; ref. protein Cyto c, glycan 400 µM): 4 | Bound number of carbohydrates on Saga P dimer (GII.4 Saga P dimer; ref. protein Cyto c, glycan 500 µM): 4 | Bound number of carbohydrates on Saga P dimer (GII.4 Saga P dimer; ref. protein GFP, glycan 100 µM): 1 | Bound number of carbohydrates on Saga P dimer (GII.4 Saga P dimer; ref. protein GFP, glycan 200 µM): 1 | Bound number of carbohydrates on Saga P dimer (GII.4 Saga P dimer; ref. protein GFP, glycan 300 µM): 1 | Bound number of carbohydrates on Saga P dimer (GII.4 Saga P dimer; ref. protein GFP, glycan 400 µM): 1 | Bound number of carbohydrates on Saga P dimer (GII.4 Saga P dimer; ref. protein GFP, glycan 500 µM): 1 | Bound number of carbohydrates on Saga P dimer (GII.4 Saga P dimer; ref. protein LDH, glycan 100 µM): 0 | Bound number of carbohydrates on Saga P dimer (GII.4 Saga P dimer; ref. protein LDH, glycan 200 µM): 0 | Bound number of carbohydrates on Saga P dimer (GII.4 Saga P dimer; ref. protein LDH, glycan 300 µM): 0 | Bound number of carbohydrates on Saga P dimer (GII.4 Saga P dimer; ref. protein LDH, glycan 400 µM): 0 | Bound number of carbohydrates on Saga P dimer (GII.4 Saga P dimer; ref. protein LDH, glycan 500 µM): 1 | Bound number of carbohydrates on Saga P dimer (GII.4 Saga P dimer; ref. protein Myo, glycan 100 µM): 2 | Bound number of carbohydrates on Saga P dimer (GII.4 Saga P dimer; ref. protein Myo, glycan 200 µM): 3 | Bound number of carbohydrates on Saga P dimer (GII.4 Saga P dimer; ref. protein Myo, glycan 300 µM): 3 | Bound number of carbohydrates on Saga P dimer (GII.4 Saga P dimer; ref. protein Myo, glycan 400 µM): 3 | Bound number of carbohydrates on Saga P dimer (GII.4 Saga P dimer; ref. protein Myo, glycan 500 µM): 4 | Bound number of carbohydrates on Saga P dimer (GII.4 Saga P dimer; ref. protein Ubq, glycan 100 µM): 2 | Bound number of carbohydrates on Saga P dimer (GII.4 Saga P dimer; ref. protein Ubq, glycan 200 µM): 3 | Bound number of carbohydrates on Saga P dimer (GII.4 Saga P dimer; ref. protein Ubq, glycan 300 µM): 4 | Bound number of carbohydrates on Saga P dimer (GII.4 Saga P dimer; ref. protein Ubq, glycan 400 µM): 4 | Bound number of carbohydrates on Saga P dimer (GII.4 Saga P dimer; ref. protein Ubq, glycan 500 µM): 4 | Bound number of carbohydrates on Saga P dimer (GII.4 Saga P dimer; ref. protein apo-TFF, glycan 100 µM): 0 | Bound number of carbohydrates on Saga P dimer (GII.4 Saga P dimer; ref. protein apo-TFF, glycan 200 µM): 0 | Bound number of carbohydrates on Saga P dimer (GII.4 Saga P dimer; ref. protein apo-TFF, glycan 300 µM): 1 | Bound number of carbohydrates on Saga P dimer (GII.4 Saga P dimer; ref. protein apo-TFF, glycan 400 µM): 1 | Bound number of carbohydrates on Saga P dimer (GII.4 Saga P dimer; ref. protein apo-TFF, glycan 500 µM): 1 | Glycan-Clustering Ratio R ([1]; 100 µM glycan): 0.20±0.05 | Glycan-Clustering Ratio R ([1]; 200 µM glycan): 0.37±0.01 | Glycan-Clustering Ratio R ([1]; 300 µM glycan): 0.42±0.02 | Glycan-Clustering Ratio R ([1]; 400 µM glycan): 0.57±0.02 | Glycan-Clustering Ratio R ([1]; 500 µM glycan): 0.74 ± 0.07 | Glycan-Clustering Ratio R ([2]; 100 µM glycan): 0.13±0.03 | Glycan-Clustering Ratio R ([2]; 200 µM glycan): 0.16±0.03 | Glycan-Clustering Ratio R ([2]; 300 µM glycan): 0.22±0.03 | Glycan-Clustering Ratio R ([2]; 400 µM glycan): 0.29±0.04 | Glycan-Clustering Ratio R ([2]; 500 µM glycan): 0.34 ± 0.03
